Results from patent US20050282818A1, “Ubiquitin ligase inhibitors” (Rigel Pharmaceuticals, Inc., priority 2004, published 2005).

Columns and labels:
[1] = molecular target: T1, TRAF6/Uev1A/Ubc13 (Homo sapiens, UniProt Q9Y4K3); experiment: TRAF6/Uev1A/Ubc13 plate-based ubiquitin ligase assay; assay type: biochemical
T1 sequence (Q9Y4K3 1-522): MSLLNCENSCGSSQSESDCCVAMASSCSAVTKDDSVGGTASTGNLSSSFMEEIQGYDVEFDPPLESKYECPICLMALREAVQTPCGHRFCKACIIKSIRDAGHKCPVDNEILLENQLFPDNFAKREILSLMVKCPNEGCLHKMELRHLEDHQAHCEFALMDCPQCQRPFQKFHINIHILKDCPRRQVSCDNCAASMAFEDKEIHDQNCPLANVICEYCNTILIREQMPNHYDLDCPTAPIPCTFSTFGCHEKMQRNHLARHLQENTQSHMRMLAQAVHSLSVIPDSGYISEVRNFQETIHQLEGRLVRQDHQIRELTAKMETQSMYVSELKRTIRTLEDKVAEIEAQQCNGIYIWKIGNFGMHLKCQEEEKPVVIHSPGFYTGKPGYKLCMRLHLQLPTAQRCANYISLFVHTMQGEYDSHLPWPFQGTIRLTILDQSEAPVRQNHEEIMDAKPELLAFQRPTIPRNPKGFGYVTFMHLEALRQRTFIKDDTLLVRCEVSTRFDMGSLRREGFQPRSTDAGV
Outline: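 Ligase activity was read as luminescence from anti-Flag/HRP detection of Flag-ubiquitin bound to casein-blocked Ni-plates alongside His-ubiquitin after a 1 h room-temperature reaction. Buffer: 62.5 mM Tris pH 7.5, 6.25 mM MgCl2, 1.0 mM DTT, 2 μM ATP; E1, Uev1a/Ubc13 and TRAF6 added last to start. IC50s derived across compound concentrations.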

[2] = test system: ICAM-1 expression in A549 cells; experiment: ICAM assay (IL-1 induced ICAM-1/CD54 expression in A549 cells); assay type: cell-based, human; details: Homo sapiens, A549, ICAM assay
Outline: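 A549 cells, 10,000/well, preincubated with compound 1 h at 37° C, then stimulated with IL-1 (4 μl of 25 ng/ml added) for 4 h. Surface ICAM-1 detected by anti-CD54 plus anti-mouse IgG staining for 1 h, luminescent read-out after PBS washes.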

[3] = molecular target: APC11/APC2 (Homo sapiens, UniProt Q9NYG5+Q9UJX6); experiment: APC-11/APC-2 ligase assay (APC auto ubiquitination); assay type: biochemical; details: APC assay
Outline: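 His-tagged APC was captured on nickel plates with human E1 (5 ng/well), UbcH5c (20 ng/well), APC (100 ng/well) and Flag-ubiquitin (100 ng/well) in a Tris pH 7.6 reaction buffer containing 2.5 mM ATP, for 1 hour at room temperature. Read-out was anti-Flag/HRP chemiluminescence. IC50 was set against a DMSO control, typically from 6 or 8 concentrations.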

Chain of APC11/APC2 (Q9NYG5 whole entry): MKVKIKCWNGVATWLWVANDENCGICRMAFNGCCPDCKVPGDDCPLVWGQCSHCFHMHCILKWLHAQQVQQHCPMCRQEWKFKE
Chain of APC11/APC2 (Q9UJX6 whole entry): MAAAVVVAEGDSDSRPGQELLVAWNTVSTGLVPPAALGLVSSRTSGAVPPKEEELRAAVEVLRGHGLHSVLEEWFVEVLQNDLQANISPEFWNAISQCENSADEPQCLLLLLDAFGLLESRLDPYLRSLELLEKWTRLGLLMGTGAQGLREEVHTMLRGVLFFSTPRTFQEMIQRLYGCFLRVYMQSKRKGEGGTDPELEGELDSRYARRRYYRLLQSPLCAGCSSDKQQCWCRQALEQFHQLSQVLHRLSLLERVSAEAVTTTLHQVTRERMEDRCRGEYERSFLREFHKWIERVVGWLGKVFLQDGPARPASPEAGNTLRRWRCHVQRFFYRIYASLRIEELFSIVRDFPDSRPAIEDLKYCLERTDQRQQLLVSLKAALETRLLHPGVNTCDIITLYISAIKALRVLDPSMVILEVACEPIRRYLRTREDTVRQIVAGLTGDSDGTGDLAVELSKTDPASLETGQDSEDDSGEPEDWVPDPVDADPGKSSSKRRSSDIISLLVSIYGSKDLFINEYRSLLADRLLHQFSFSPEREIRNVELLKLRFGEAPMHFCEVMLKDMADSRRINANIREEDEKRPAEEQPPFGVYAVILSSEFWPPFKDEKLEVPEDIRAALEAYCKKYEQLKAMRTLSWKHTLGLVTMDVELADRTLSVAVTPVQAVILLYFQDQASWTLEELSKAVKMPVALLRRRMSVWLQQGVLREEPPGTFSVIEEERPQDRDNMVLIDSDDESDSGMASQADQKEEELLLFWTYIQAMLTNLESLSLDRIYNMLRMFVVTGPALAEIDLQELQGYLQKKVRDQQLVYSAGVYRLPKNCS

Structure (SMILES) | IC50 [1] [µM] | IC50 [2] [µM] | IC50 [3] [µM]
Cc1ccccc1-c1ccc([N+](=O)[O-])c2nonc12 [compound 439, 4-nitro-7-o-tolyl-2,1,3-benzoxadiazole] | ≥ 20 | 1 to 20 | ≥ 20
Nc1ccc(Nc2ccc3[nH]ncc3c2)c2nonc12 [compound 398, N-(1H-indazol-5-yl)-2,1,3-benzoxadiazole-4,7-diamine] | ≥ 20 | 1 to 20 | ≥ 20
Cc1ccc(C)c(-c2cc([N+](=O)[O-])cc3nonc23)c1 [compound 484, 4-(2,5-dimethylphenyl)-6-nitro-2,1,3-benzoxadiazole] | ≥ 20 | ≥ 20 | ≥ 20
O=[N+]([O-])c1ccc(C2=CCCCC2)c2nonc12 [compound 451, 4-cyclohexenyl-7-nitro-2,1,3-benzoxadiazole] | ≥ 20 | 1 to 20 | ≥ 20
O=[N+]([O-])c1ccc(-c2cccc3ccccc23)c2nonc12 [compound 469, 4-(naphthalen-1-yl)-7-nitro-2,1,3-benzoxadiazole] | ≥ 20 | 1 to 20 | 1 to 20
COc1ccccc1-c1cc(-c2ccccc2OC)c2nonc2c1 [compound 423, 4,6-bis(2-methoxyphenyl)-2,1,3-benzoxadiazole] | ≥ 20 | ≥ 20 | ≥ 20
O=[N+]([O-])c1cc(-c2cc(F)cc(F)c2)c2nonc2c1 [compound 479, 4-(3,5-difluorophenyl)-6-nitro-2,1,3-benzoxadiazole] | ≥ 20 | ≥ 20 | ≥ 20
Clc1cc(Sc2cccc3cccnc23)cc2nonc12 [compound 336, 8-[(4-chloro-2,1,3-benzoxadiazol-6-yl)thio]quinoline] | ≥ 20 | ≥ 20 | ≥ 20
CC(=O)c1ccc(-c2ccc([N+](=O)[O-])c3nonc23)cc1 [compound 441, 1-(4-[7-nitro-2,1,3-benzoxadiazol-4-yl]phenyl)ethanone] | 1 to 20 | 1 to 20 | 1 to 20
Fc1cc2nsnc2cc1-c1cccc2c1OCO2 [compound 460, 5-(benzodioxol-4-yl)-6-fluoro-2,1,3-benzthiadiazole] | ≥ 20 | ≥ 20 | ≥ 20
O=[N+]([O-])c1ccc(-c2ccc(C(F)(F)F)cc2C(F)(F)F)c2nonc12 [compound 312, 4-[2,4-Bis(trifluoromethyl)phenyl]-7-nitro-2,1,3-benzoxadiazole] | 1 to 20 | ≥ 20 | 1 to 20
O=S(=O)(Nc1cccc2ccccc12)c1ccc(Sc2cccc3cccnc23)c2nonc12 [compound 407, N-(naphthalen-1-yl)-7-(quinolin-8-ylthio)-2,1,3-benzoxadiazole-4-sulfonamide] | 1 to 20 | 1 to 20 | 1 to 20
O=[N+]([O-])c1ccc(-c2cc(F)cc(F)c2)c2nonc12 [compound 308, 4-[(3,5-Difluoro)phenyl]-7-nitro-2,1,3-benzoxadiazole] | ≥ 20 | 1 to 20 | 1 to 20
O=S(=O)(Nc1cccc2ccccc12)c1c(Cl)cc(Nc2cccc3ccccc23)c2nonc12 [compound 417, 5-chloro-N-(naphthalen-1-yl)-7-(naphthalen-1-ylamino)-2,1,3-benzoxadiazole-4-sulfonamide] | 1 to 20 | 1 to 20 | 1 to 20
O=[N+]([O-])c1cc(-c2ccc(C(F)(F)F)cc2C(F)(F)F)c2nonc2c1 [compound 477, 4-(2,4-bis[trifluoromethyl]phenyl)-6-nitro-2,1,3-benzoxadiazole] | ≥ 20 | 1 to 20 | 1 to 20
O=S(=O)(Nc1cccc2ccccc12)c1c(Nc2cccc3ccccc23)cc(Cl)c2nonc12 [compound 415, 7-chloro-N-(naphthalen-1-yl)-5-(naphthalen-1-ylamino)-2,1,3-benzoxadiazole-4-sulfonamide] | 1 to 20 | 1 to 20 | 1 to 20
O=S(=O)(Nc1cccc(F)c1F)c1ccc(Sc2ccncn2)c2nonc12 [compound 377, N-(2,3-difluorophenyl)-7-(pyrimidin-4-ylthio)-2,1,3-benzoxadiazole-4-sulfonamide] | ≥ 20 | ≥ 20 | ≥ 20
Cc1cccc(-c2cc(N3CCCCC3)c([N+](=O)[O-])c3nonc23)c1 [compound 432, 7-(3-methylphenyl)-4-nitro-5-(piperidin-1-yl)-2,1,3-benzoxadiazole] | ≥ 20 | ≥ 20 | ≥ 20

Second part, the compound after the results:

IC50 [1] [µM] | IC50 [2] [µM] | IC50 [3] [µM] | Structure (SMILES)
≥ 20 | 1 to 20 | ≥ 20 | COc1cccc(NS(=O)(=O)c2ccc(Cl)c3nonc23)c1OC [compound 410, 7-chloro-N-(2,3-dimethoxyphenyl)-2,1,3-benzoxadiazole-4-sulfonamide]
≥ 20 | 1 to 20 | ≥ 20 | O=S(=O)(Nc1cccc2ccccc12)c1ccc(Cl)c2nonc12 [compound 392, 7-chloro-N-(naphthalen-1-yl)-2,1,3-benzoxadiazole-4-sulfonamide]
≥ 20 | 1 to 20 | ≥ 20 | O=S(=O)(NCc1ccccn1)c1ccc(Cl)c2nonc12 [compound 446, 7-chloro-N-(pyridin-2-ylmethyl)-2,1,3-benzoxadiazole-4-sulfonamide]
≥ 20 | ≥ 20 | ≥ 20 | O=S(=O)(Nc1ccncn1)c1ccc(Cl)c2nonc12 [compound 374, 7-chloro-N-1,3-pyrimidin-4-yl-2,1,3-benzoxadiazole-4-sulfonamide]
≥ 20 | ≥ 20 | ≥ 20 | O=S(=O)(Nc1ccccc1Br)c1ccc(Cl)c2nonc12 [compound 424, N-(2-bromophenyl)-7-chloro-2,1,3-benzoxadiazole-4-sulfonamide]
≥ 20 | ≥ 20 | ≥ 20 | O=S(=O)(NCCCc1ccccc1)c1ccc(Cl)c2nonc12 [compound 445, 7-chloro-N-(3-phenylpropyl)-2,1,3-benzoxadiazole-4-sulfonamide]
≥ 20 | ≥ 20 | ≥ 20 | COc1cc(C)ccc1NS(=O)(=O)c1ccc(N2CCOCC2)c2nonc12 [compound 386, N-(2-methoxy-4-methylphenyl)-7-(morpholin-4-yl)-2,1,3-benzoxadiazole-4-sulfonamide]
1 to 20 | 1 to 20 | 1 to 20 | O=S(=O)(Nc1cccc2ccc(O)cc12)c1ccc(Cl)c2nonc12 [compound 383, 7-chloro-N-(7-hydroxynaphthalen-1-yl)-2,1,3-benzoxadiazole-4-sulfonamide]
≥ 20 | ≥ 20 | ≥ 20 | O=S(=O)(Nc1c(F)cc(F)cc1F)c1ccc(Cl)c2nonc12 [compound 357, 7-chloro-N-(2,4,6-trifluorophenyl)-2,1,3-benzoxadiazole-4-sulfonamide]
≥ 20 | 1 to 20 | ≥ 20 | O=S(=O)(Nc1ncccc1OCc1ccccc1)c1ccc(Cl)c2nonc12 [compound 380, N-(3-benzyloxypyridin-2-yl)-7-chloro-2,1,3-benzoxadiazole-4-sulfonamide]
≥ 20 | 1 to 20 | ≥ 20 | Cc1c(NS(=O)(=O)c2ccc(Cl)c3nonc23)cccc1C(F)(F)F [compound 350, 7-chloro-N-(2-methyl-3-[trifluoromethyl]phenyl)-2,1,3-benzoxadiazole-4-sulfonamide]
≥ 20 | 1 to 20 | ≥ 20 | Cc1ccc(NS(=O)(=O)c2ccc(Cl)c3nonc23)c(Cl)c1 [compound 354, 7-chloro-N-(2-chloro-4-methylphenyl)-2,1,3-benzoxadiazole-4-sulfonamide]
≥ 20 | ≥ 20 | ≥ 20 | COCCNS(=O)(=O)c1ccc(Cl)c2nonc12 [compound 438, 7-chloro-N-(2-methoxyethyl)-2,1,3-benzoxadiazole-4-sulfonamide]
≥ 20 | 1 to 20 | ≥ 20 | Cc1cccc(C)c1NS(=O)(=O)c1ccc(Cl)c2nonc12 [compound 353, 7-chloro-N-(2,6-dimethylphenyl)-2,1,3-benzoxadiazole-4-sulfonamide]
≥ 20 | 1 to 20 | ≥ 20 | COc1cccc(NS(=O)(=O)c2c(Cl)ccc3nonc23)c1OC [compound 409, 5-chloro-N-(2,3-dimethoxyphenyl)-2,1,3-benzoxadiazole-4-sulfonamide]
